Legend:
[1] = test system: neurons; conditions: cited from earlier work
[2] = dog, in vivo
Protocol: In 6 other animals, 1.6 mg of NIPA-M (twice the amount of NIPA-M incorporated into one trans-coronary delivery) was directly injected into the left ventricle. NIPA-M used in these experiments was not incorporated into the hydrogel in order to simulate the greatest possible toxic challenge should the total NIPA-M dose be released instantly into the circulation from trans-coronary infusion. Serum samples before and 9.7±0.3 hours after NIPA-M injection were collected for paired analysis to assess renal and hepatic toxicity.

[3] = in vivo; cited from earlier work
[4] = test system: neurotransmitter release at the synapse; conditions: cited from earlier work

Row | Compound | LD50% to kill 50% neurons [1] [mM] | BUN/creatine ratio [2] | alanine aminotransferase (ALT) [2] [U/L] | blood urea nitrogen (BUN) [2] [mmol/L] | serum creatinine [2] [mmol/L] | neuropathy following prolonged oral exposure [3] | duration of inhibition of neurotransmitter release at the synapse [4]
1 | C=CC(=O)NC(C)C [NIPA-M, N-isopropyl acrylamide monomer] | 5 to 8 | 17.6±1.7 | 41.3±8.7 | 16.2 ± 2.9 | 0.9 ± 0.1 | induce clinical (ataxia, rotorod performance deficits) and morphological (tibial nerve degeneration) signs of neuropathy | 
2 | botulinum toxin-A [BtA] |  |  |  |  |  |  | 3-6 months

Source: patent US8740872B2, “Magnetically-targeted treatment for cardiac disorders” (The Board of Regents of the University of Oklahoma, priority 2010, dated 2014)
